This is an account of results in US11229602B2, “Formulations for treating bladder cancer” (priority 2016, dated 2022).

The subject of data set [1] is human bladder epithelial carcinoma cell-line T24 (ATCC HTB-4). Put plainly: Sulforhodamine B (SRB) assay, T24 cells. Type of data set: cell-based. As to conditions: 72 h treatment. The method, then:
(§1) A sulforhodamine B (SRB) assay-based approach was employed to determine the inhibitory concentration (IC)50 of paclitaxel formulations PLIP-003, PLIP-006, PLIP-021, and PLIP-023 against the human bladder epithelial carcinoma cell-lines T24 (ATCC® HTB-4™), 5637 (ATCC® HTB-9™) and HT-1376 (ATCC® CRL-1472™). For use in the assays, the paclitaxel formulations were redispersed in normal saline to a concentration of 2-5 mg/mL paclitaxel. The dispersed formulations formed clear solutions. Pure, unformulated, paclitaxel solution ([6 mg/100 μL] in DMSO) was used as a control formulation.
(§2) Cells were seeded onto 96-well plates at a density of 5×10^3 cells/well and cultured for 24 h at 37° C. and 5% CO2. The dispersed paclitaxel formulations and pure drug controls were added to the media of the plated cell cultures. […] Protein-bound SRB was detected by adding 100 μl 10 mM Tris base solution to each well, and allowing 5 to 10 minutes for Tris solution to solubilize SRB. The plates were read using a microplate reader at an absorbance of 565 nm. […]
(§3) Cells were seeded onto 96-well plates at a density of 5×10^3 cells/well and cultured for 24 h at 37° C. and 5% CO2. […] Protein-bound SRB was detected by adding 100 μl 10 mM Tris base solution to each well, and allowing 5 to 10 minutes for Tris solution to solubilize SRB. The plates were read using a microplate reader at an absorbance of 565 nm.
(In general: The SRB assay estimates cell density from bound dye.)

Data set [2] relates to human bladder epithelial carcinoma cell-line 5637 (ATCC HTB-9). Put plainly: Sulforhodamine B (SRB) assay, 5637 cells. The data set is classed as cell-based. As to conditions: 72 h treatment. The method, then: as §1, §2, §3
Data set [3] concerns KU-7-GFP human bladder cancer. Put plainly: KU-7-GFP human bladder cancer orthotopic mouse model, intravesical instillation. Type of data set: in vivo, mice. The method, then: An orthotopic mouse model was utilized to evaluate a proliposomal formulation of paclitaxel. The bladder cancer cell line KU7/GFP clone 6 was used for these studies. The KU7/GFP clone 6 is stably transfected with the green-fluorescent protein, and these cell lines were used for all in vivo studies. The KU7/GFP clone 6 cell lines are described in Watanabe et al. The cells were grown in modified minimum essential medium supplemented with 10% FCS and incubated at 37° C. in 5% CO2. Tumors generated from KU7/GFP cells were generated […]. The tumors were implanted into the bladder of female mice. […] The foregoing formulations and saline were administered at day 0, day 7, and day 14 post-tumor implantation.
KU-7-GFP human bladder cancer orthotopic MetaMouse® model: The human bladder cancer cell line KU-7 expressing GFP was from the AntiCancer Inc. cell-line bank. The animals were transplanted by intravesical instillation using the KU-7-GFP bladder cancer cells. The animals were anesthetized with a mixture of ketamine, acepromazine and xylazine. The surgical area was sterilized using iodine and alcohol. After proper exposure of the bladder following a lower midline abdominal incision, the bladder was catheterized with a 24-G angiocatheter, drained and injured by a scratch with a needle in the bladder lining. KU-7-GFP (100 μl 2×10^6) cells were instilled into the bladder and a purse string was placed to occlude the urethra in order for the cells to be retained for 1 hour. The bladder was then returned to the abdominal cavity. The incision in the abdominal wall was closed with a 6-0 surgical suture in one layer. The animals were kept under isoflurane anesthesia during surgery. All procedures of the operation described above were performed under a 7× magnification microscope (Olympus). Animals were kept in a barrier facility under HEPA filtration.
On day 7 after tumor cell implantation, fifty animals were randomly divided into five groups (each treatment group contained n=10 mice) on day 7 after tumor implantation. Treatments in all groups for all mice were initiated on the same day, which was considered Study Day 0. Freshly reconstituted formulation (50 μL) was instilled intravesically using a 24 G/¾″ IV catheter, and the urethra was occluded using a purse string knot. The formulation was held in the bladder for a period of 1 h. After 1 h, the purse string was cut open, and the bladder was allowed to void naturally. The same procedure was followed on days 0, 7, 14 […].
In vitro human bladder cancer cell lines (T24, KU7) were used to assess IC50 values. In vivo studies were carried out in nude mice inoculated with KU7-GFP cell-lines. After KU7 bladder tumor inoculation, weekly (×3) intravesical instillations (3 groups: PLIP; PTX/DMSO or PTX/Nab; or saline) were delivered and tumor growth measured. Pharmacokinetic studies were carried out in rat species. A GLP compliant acute-expanded toxicology/toxicokinetics study in rat species was also performed.

Data set [4] relates to human bladder epithelial carcinoma cell-line HT-1376 (ATCC CRL-1472). Briefly: Sulforhodamine B (SRB) assay, HT-1376 cells. The data set is classed as cell-based. The settings on record: HT1376; cisplatin formulations; 72 h treatment. The method, then:
as §1, §2, §3

A short description of data set [5]: Redispersion / dissolution in normal saline. The data set is classed as physicochemical. The method, then:
as §1
A sulforhodamine B (SRB) assay-based approach was employed to determine the inhibitory concentration IC50 of cisplatin formulations PLIC-002 and PLIC-009 against the human bladder carcinoma epithelial cell-lines T24 (ATCC® HTB-4™), 5637 (ATCC® HTB-9™) and HT-1376 (ATCC® CRL-1472™). For use in the assays, the cisplatin formulations were redispersed in normal saline to a concentration 2 mg/mL cisplatin. The redispersed formulations formed clear solutions. Pure cisplatin solution 1 mg/mL in normal saline (unformulated) was used as a control. Higher concentrations of pure cisplatin were not used because cisplatin will not form a clear solution above 1 mg/mL in normal saline.

Setting [6] is: 5.0 mg/kg, nude mice KU7-GFP, weekly intravesical instillations.
The mark [7] stands for this setting: 5.0 mg/kg, nude mice KU7-GFP, weekly intravesical instillations, * p < 0.05 vs saline.

“And” between values parts separate entries of the source, which are not always exact repeats. Identical values can stand only once. Like-named read-outs stand apart in the source and are kept apart here.

What is called IC50 is the concentration that gives 50% inhibition. As to `CC(=O)O[C@H]1C(=O)[C@@]2(C)[C@H]([C@H](OC(=O)c3ccccc3)[C@]3(O)C[C@H](OC(=O)[C@H](O)[C@@H](NC(=O)c4ccccc4)c4ccccc4)C(C)=C1C3(C)C)[C@]1(OC(C)=O)CO[C@@H]1C[C@@H]2O` [Paclitaxel in DMSO, Paclitaxel], the IC50 in data set [1] (Homo sapiens, T-24, paclitaxel formulations, read-out: IC50) is less than 0.1 µg/mL. For the same compound, the IC50 in data set [2] (Homo sapiens, paclitaxel formulations, read-out: IC50) is less than 0.1 µg/mL. Also, in data set [3] (setting [6]), the “Bladder Size” value is recorded as 13 mm^2 and the “Tumor Size” value turned out to be 0.05 mm^2. For the same compound, in data set [3] (setting [7]), the “% Bladder Overtaken by Tumor” value worked out at 10%* and the “% Complete Response” value is 25% (1/4). Further, the “Final tumor area, measured by fluorescent method” value in data set [3] (Groups 3 and 4, title says Study Design 2, two weeks, five groups as in Study Design 1 (5 mg/kg once a week), individual mice, listed as PTX in DMSO, 5 mg/kg) was 16.39 mm^2 and 5.37 mm^2 and 15.96 mm^2. Moreover, in data set [3] (Groups 3 and 4, title says Study Design 2, two weeks, five groups as in Study Design 1 (5 mg/kg once a week), mean), the “Final tumor area, measured by fluorescent method, mean” value amounted to 12.58 mm^2.
As for `N.N.[Cl][Pt][Cl]` [Pure drug, Cis-diamminedichloroplatinum(II)], the IC50 in data set [1] (cisplatin formulations) amounted to 0.788 µg/mL; in data set [2] (cisplatin formulations), 0.441 µg/mL; in data set [4], 1.11 µg/mL. Further, in data set [5], the “highest concentration forming a clear solution in normal saline” value was not above 1 mg/mL.
